Patent US10179153B2, “Probiotic and prebiotic compositions” (AQUILON CYL SOCIEDAD LIMITADA, priority 2014, dated 2019)
In brackets after ≈: the same amount, converted by molar mass.

How the values were obtained:
AqSynJ59 strain [1] = experiment: In vitro test of minimal inhibitory concentration (MIC) of antibiotics; assay type: cell-based, Lactobacillus plantarum; conditions: for MIC, LSM: LAB susceptibility test medium pH 6.7, unit assumed; for Category: MIC compared with EFSA cut-off
Method: An in vitro test of minimal inhibitory concentration (MIC) aimed to evaluate antibiotic resistances was performed for the above strains (AqSynJ59 and […]69). […] The microbiological cut-off values that were used for evaluating the antibiotic resistances of the strains of the present invention are the ones defined in the “Guidance on the assessment of bacterial susceptibility to antimicrobials of human and veterinary importance”, EFSA Panel on Additives and Products or Substances used in Animal Feed ([…]), European Food Safety Authority (EFSA), Parma, Italy.

AqSynRMH69 strain [2] = experiment: as above; assay type: cell-based, Lactobacillus reuteri; conditions: for MIC, LSM: LAB susceptibility test medium pH 6.7, unit assumed; for Category: MIC compared with EFSA cut-off
Method: The evaluated antibiotics may be the following: Ampicillin, Vancomicin, Gentamicin, Kanamycin, Streptomycin, Eritromycin, Clindamycin, Tetracyclin and Chloranphenicol. An in vitro test of minimal inhibitory concentration (MIC) aimed to evaluate antibiotic resistances was performed for the above strains (AqSynJ59 and […]69). The evaluated antibiotics were the following: Ampicillin, Vancomicin, Gentamicin, Kanamycin, Streptomycin, Clindamycin, Tetracyclin and Chloranphenicol. The microbiological cut-off values that were used for evaluating the antibiotic resistances of the strains of the present invention are the ones defined in the “Guidance on the assessment of bacterial susceptibility to antimicrobials of human and veterinary importance”, EFSA Panel on Additives and Products or Substances used in Animal Feed ([…]), European Food Safety Authority (EFSA), Parma, Italy.

AqSynJ59 strain [3] = conditions: cut-off used for AqSynJ59 (Lactobacillus plantarum); cited from earlier work
AqSynRMH69 strain [4] = conditions: cut-off used for AqSynRMH69 (Lactobacillus reuteri); cited from earlier work

| Compound | MIC, LSM (AqSynJ59 strain [1]) [mg/L] | Category (AqSynJ59 strain [1]) | MIC, LSM (AqSynRMH69 strain [2]) [mg/L] | Category (AqSynRMH69 strain [2]) | EFSA (2012) values (microbiological cut-off) (AqSynJ59 strain [3]) | EFSA (2012) values (microbiological cut-off) (AqSynRMH69 strain [4]) |
| --- | --- | --- | --- | --- | --- | --- |
| CCC[C@@H]1C[C@@H](C(=O)N[C@@H]([C@H]2O[C@H](SC)[C@H](O)[C@@H](O)[C@H]2O)[C@H](C)Cl)N(C)C1 [Clindamycin] | 0.125 (≈ 0.294 µM) | S | 0.125 (≈ 0.294 µM) | S | – | – |
| NC[C@H]1O[C@H](O[C@H]2[C@H](O)[C@@H](O[C@H]3O[C@H](CO)[C@@H](O)[C@H](N)[C@H]3O)[C@H](N)C[C@@H]2N)[C@H](O)[C@@H](O)[C@@H]1O [Kanamycin] | 64 (≈ 132 µM) | S | 64 (≈ 132 µM) | S | – | – |
| Gentamicin | 1 | S | 2 | S | 16 | 8 |
| CC1(C)S[C@@H]2[C@H](NC(=O)[C@H](N)c3ccccc3)C(=O)N2[C@H]1C(=O)O [Ampicillin] | – | – | 0.25 (≈ 0.715 µM) | S | 2 | 2 |
| CN[C@H](CC(C)C)C(=O)N[C@H]1C(=O)N[C@@H](CC(N)=O)C(=O)N[C@H]2C(=O)N[C@H]3C(=O)N[C@H](C(=O)N[C@H](C(=O)O)c4cc(O)cc(O)c4-c4cc3ccc4O)[C@H](O)c3ccc(c(Cl)c3)Oc3cc2cc(c3O[C@@H]2O[C@H](CO)[C@@H](O)[C@H](O)[C@H]2O[C@H]2C[C@](C)(N)[C@H](O)[C@H](C)O2)Oc2ccc(cc2Cl)[C@H]1O [Vancomycin] | 512 (≈ 353 µM) | – | 512 (≈ 353 µM) | R | – | – |
| O=C(N[C@H](CO)[C@H](O)c1ccc([N+](=O)[O-])cc1)C(Cl)Cl [Chloramphenicol] | 2 (≈ 6.19 µM) | S | 2 (≈ 6.19 µM) | S | 8 | 4 |
| [H]/N=C(/N)N[C@H]1[C@H](O)[C@@H](O)[C@H](O[C@@H]2O[C@@H](C)[C@](O)(C=O)[C@H]2O[C@@H]2O[C@@H](CO)[C@H](O)[C@@H](O)[C@@H]2NC)[C@@H](N/C(N)=N\[H])[C@@H]1O [Streptomycin] | 32 (≈ 55 µM) | – | 32 (≈ 55 µM) | S | – | 64 |
| CN(C)[C@@H]1C(O)=C(C(N)=O)C(=O)[C@@]2(O)C(O)=C3C(=O)c4c(O)cccc4[C@@](C)(O)[C@H]3C[C@@H]12 [Tetracycline] | 4 (≈ 9 µM) | S | 4 (≈ 9 µM) | S | – | – |
